Experiments:
Assay in all cases: Cytostatic cell culture assay (GI50), SRB
Format in all cases: cell-based
Details in all cases: 5 days incubation
A549 = test system: A549
Excerpt: (§1) The assay is based on quantification of cell counts by a colorimetric detection of the cell associated proteins. The assay relies on the ability of sulforhodamine B (SRB) to bind to protein components of cells that have been fixed to tissue-culture plates by trichloroacetic acid (TCA). SRB is a bright-pink aminoxanthene dye with two sulfonic groups that bind to basic amino-acid residues under mild acidic conditions, and dissociate under basic conditions. As the binding of SRB is stoichiometric, the amount of dye extracted from stained cells is directly proportional to the cell mass.
(§2) Cell lines: All cell lines were obtained from ATCC (Manassas, Va.). Cultivation media containing Glutamax, and trypsin were purchased from Invitrogen (Carlsbad, Calif.). Doxorubicin, Clofarabine, TCA and SRB were from Sigma-Aldrich (St. Louis, Mo.). Gemcitabine was obtained from Moravek Biochemicals (Brea, Calif.)
(§3) • 1. Trypsinize the sub-confluent cells, count them, and adjust the cell concentrations according to the cell counts listed in Table 1. • 2. Distribute the cells into the 96-well plates in 150 μL of media. Incubate the plates overnight in humidified CO2 incubator at 37° C. • 3. Fix one plate of each cell line with TCA. Discard the cultivation media from the plates by flicking them gently and add 100 ul cold 10% (vol/vol) TCA to each well. Incubate the plates at 4 degree refrigerator for 1 hour. Discard TCA from the plates by flicking them gently. Rinse plates four times in a washing basin containing tap water. Store the plates at room temperature. These plates represent cell counts on day zero. • 4. Prepare a set of medium solutions containing various concentrations of tested compounds by making 5-fold serial dilutions in 96-well plate. Add 50 μL of the diluted compounds per well. Include controls with untreated cells and cells treated with doxorubicin, clofarabine and gemcitabine. • 5. Incubate the plates for 5 days at 37° C. • 6. Fix the plates with TCA. Discard the cultivation media from the plates by flicking them gently and add 100 ul cold 10% (vol/vol) TCA to each well. Incubate the plates at 4 degree refrigerator for 1 hour. Discard TCA from the plates by flicking them gently. Rinse plates four times in a washing basin containing tap water. • 7. Remove excess water by tapping the plates face down, gently on a paper towel. Allow the plates to air-dry at room temperature. • 8. Add 100 ul of 0.057% SRB solution in 1% (vol/vol) acetic acid to each well of the plates fixed with TCA on day zero and five. Leave at room temperature for 30 minutes. • 9. Flick the plates gently to discard SRB. Rinse the plates four times with 1% (vol/vol) Acetic Acid. • 10. Store the plates at 37 degree incubator to facilitate faster drying. • 11. Once the plates are completely dry, add 200 ul of 10 mM Tris base solution (pH 10.5) to each well. Leave at room temperature for 30 minutes for SRB to solubilize. • 12. Measure the OD at 500 nm in a microplate reader • 13. Calculate the percentage of cell-growth inhibition using the next formula: % of control cell growth=100×(ODsample−mean ODday0)/(ODneg control−mean ODday0)
(§4) For GI50 determination, plot a dose-response curve between the compound concentration and percent of growth inhibition. GI50 values can be derived by fitting dose-response curves using sigmoidal dose response equation.

BT-549 = test system: BT-549
Excerpt: as §1, §2, §3, §4

Du-145 = test system: Du-145
Excerpt: as §1, §2, §3, §4

HCT-116 = test system: HCT-116
Excerpt: as §1, §2, §3, §4

HCT-15 = test system: HCT-15
Excerpt: as §1, §2, §3, §4

Hs-578 = test system: Hs-578
Excerpt: as §1, §2, §3, §4

NCI-H23 = test system: NCI-H23
Excerpt: as §1, §2, §3, §4

PC3 = test system: PC3
Excerpt: as §1, §2, §3, §4

Compound	GI50 (A549) [µM]	GI50 (BT-549; Homo sapiens, BT-549, 120 h) [µM]	GI50 (Du-145; Homo sapiens, DU-145, 120 h) [µM]	GI50 (HCT-116) [µM]	GI50 (HCT-15; Homo sapiens, HCT-15, 120 h) [µM]	GI50 (Hs-578) [µM]	GI50 (NCI-H23; Homo sapiens, NCI-H23, 120 h) [µM]	GI50 (PC3) [µM]	GI50 (BT-549) [µM]	GI50 (Du-145) [µM]	GI50 (HCT-15) [µM]	GI50 (NCI-H23) [µM]	GI50 (A549; Homo sapiens, A549, 120 h) [µM]	GI50 (HCT-116; Homo sapiens, HCT-116, 120 h) [µM]	GI50 (Hs-578; Hs578, 120 h) [µM]	GI50 (PC3; Homo sapiens, PC-3, 120 h) [µM]
CCCCOC(=O)[C@H](C)NP(=O)(COCCn1cnc2c(OCCC)nc(N)nc21)Oc1ccccc1 (single isomer, unassigned) [Example 52a]	0.048	0.105	0.0003	0.043	0.553	0.013	0.0009	0.008								
CCCCOC(=O)[C@H](C)NP(=O)(COCCn1cnc2c(OCCC)nc(N)nc21)Oc1ccccc1 (single isomer, unassigned) [Example 52b]	0.015			0.011		0.002		0.003	0.1	0.0003	0.517	0.001				
CCCOc1nc(N)nc2c1ncn2CCOCP(=O)(N[C@@H](C)C(=O)OCC)Oc1ccccc1 (single isomer, unassigned) [Example 53a]	0.268			0.154	2.11	0.062		0.031	0.249	0.002		0.005				
CCCOc1nc(N)nc2c1ncn2CCOCP(=O)(N[C@@H](C)C(=O)OCC)Oc1ccccc1 (single isomer, unassigned) [Example 53b]	0.647			0.329		0.177		0.18	0.564	0.014	2.04	0.07				
CCCOc1nc(N)nc2c1ncn2CCOCP(=O)(O)O [Example 1, [2-(2-Amino-6-propoxy-purin-9-yl)-ethoxymethyl]-phosphonic acid]		0.9	0.076		0.886		0.287						1.24	1.1	3.81	1.1
COc1nc(N)nc2c1ncn2CCOCP(=O)(O)O [Example 2, [2-(2-Amino-6-methoxy-purin-9-yl)-ethoxymethyl]-phosphonic acid]		4.87	0.475		4.65		0.589						2.42	5.9	2.01	3.7
CC(C)Oc1nc(N)nc2c1ncn2CCOCP(=O)(O)O [Example 3, [2-(2-Amino-6-isopropoxy-purin-9-yl)-ethoxymethyl]-phosphonic acid]		2.48	0.177		2.53		0.551						2.98	2.44	2.45	1.38
CCCCOc1nc(N)nc2c1ncn2CCOCP(=O)(O)O [Example 4, [2-(2-Amino-6-butoxy-purin-9-yl)-ethoxymethyl]-phosphonic acid]		3.76	0.235		2.98		0.633						4.54	3.13	3.32	1.44
CCOc1nc(N)nc2c1ncn2CCOCP(=O)(O)O [Example 5, [2-(2-Amino-6-ethoxy-purin-9-yl)-ethoxymethyl]-phosphonic acid]		2	0.223		2.44		0.639						2.84	3.59	2.59	2.48
Nc1nc(OC2CCCCC2)c2ncn(CCOCP(=O)(O)O)c2n1 [Example 6, [2-(2-Amino-6-cyclohexyloxy-purin-9-yl)-ethoxymethyl]-phosphonic acid]		17	0.439		13		6						> 10	> 10	11	3.01
CCCCCOc1nc(N)nc2c1ncn2CCOCP(=O)(O)O [Example 7, [2-(2-Amino-6-pentyloxy-purin-9-yl)-ethoxymethyl]-phosphonic acid]		2.57	0.101		2.61		0.596						3.36	2.45	1.57	0.595
Nc1nc(OC2CC2)c2ncn(CCOCP(=O)(O)O)c2n1 [Example 8, [2-(2-Amino-6-cyclopropoxy-purin-9-yl)-ethoxymethyl]-phosphonic acid]		2.71	0.536		4.14		0.675						2.82	5.4	3.34	2.83
Nc1nc(OC2CCC2)c2ncn(CCOCP(=O)(O)O)c2n1 [Example 9, [2-(2-Amino-6-cyclobutoxy-purin-9-yl)-ethoxymethyl]-phosphonic acid]		1.55	0.077		1.22		0.359						1.83	1.72	1.55	0.955
Nc1nc(OC2CCCC2)c2ncn(CCOCP(=O)(O)O)c2n1 [Example 10, [2-(2-Amino-6-cyclopentyloxy-purin-9-yl)-ethoxymethyl]-phosphonic acid]		2.99	0.054		2.38		0.603						3.06	1.79	2.26	1.01
CCCCOC(=O)[C@H](C)NP(=O)(COCCn1cnc2c(OCCCC)nc(N)nc21)N[C@@H](C)C(=O)OCCCC [Example 36]		0.12			0.869		0.002						0.013	0.007	0.011	0.003
CCCCOC(=O)[C@H](C)NP(=O)(COCCn1cnc2c(OC3CC3)nc(N)nc21)N[C@@H](C)C(=O)OCCCC [Example 43]		0.017			1.52		0.001						0.102	0.011	0.032	0.032

— patent publication US8163718B2, “Nucleoside analogues containing phosphonate or phosphonamide groups” (Gilead Sciences, Inc., priority 2008, dated 2012)
